Measured values: patent publication EP4417602A1, “SUBSTITUTED PYRAZOLE CARBOXAMIDES, SALTS THEREOF AND THEIR USE AS HERBICIDALLY ACTIVE SUBSTANCES” (Bayer AG, priority 2023, dated 2024)

Experiments:
[1] = system: ECHCG; experiment: B. Herbicidal post-emergence action on harmful plants (Tables B); format: in vivo, Echinochloa crus-galli; settings: application rate 1280 g/ha; Table B2a
Description: (§1) Seeds of mono- and dicotyledonous weed plants were placed in plastic pots in sandy loam soil (doubly sown with in each case one species of mono- or dicotyledonous weed plants per pot), covered with soil and cultivated in a greenhouse under controlled growth conditions. 2 to 3 weeks after sowing, the test plants were treated at the one-leaf stage. The compounds of the invention, formulated in the form of wettable powders (WP) or as emulsion concentrates (EC), were applied onto the green parts of the plants as aqueous suspension or emulsion with addition of 0.5% additive at a water application rate of 600 liters per hectare (converted). After the test plants had been kept in the greenhouse under optimum growth conditions for about 3 weeks, the activity of the preparations was rated visually in comparison to untreated controls. For example, 100% activity = the plants have died, 0% activity = like control plants. Tables B1 to B12, below, show the effects of selected compounds of the general formula (I) according to table 1 on various harmful plants and an application rate corresponding to 1280 g/ha or below obtained by the experimental procedure mentioned above. Table B1a: post-emergence activity at 1280g/ha against ABUTH in %

[2] = system: AMARE; experiment: A. Herbicidal pre-emergence action on harmful plants (Tables A); format: in vivo, Amaranthus retroflexus
Excerpt: Seeds of mono- and dicotyledonous weed plants were sown in plastic pots (double sowings with one species of mono- and one species of dicotyledonous weed plants per pot), in sandy loam, and covered with soil. The compounds according to the invention, formulated in the form of wettable powders (WP) or as emulsifiable concentrates (EC), were applied to the surface of the covering soil as aqueous suspension or emulsion, with the addition of 0.5% of an additive, at an application rate of 6001 of water per hectare (converted). Following treatment, the pots were placed in a greenhouse and kept under optimum growth conditions for the test plants. The visual grading of the damage to the test plants was carried out after ca. 3 weeks in comparison to untreated controls (herbicidal effect in percent (%): 100% effect = plants have died off, 0% effect = as control plants). Tables A1 to A12, below, show the effects of selected compounds of the general formula (I) according to table 1 on various harmful plants and an application rate corresponding to 1280 g/ha or below obtained by the experimental procedure mentioned above. Table A1: pre-emergence activity at 1280g/ha against ABUTH in %

[3] = system: POAAN; experiment: B. Herbicidal post-emergence action on harmful plants (Tables B); format: in vivo, Poa annua
In short: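 Activity was scored visually as % damage (100% = dead, 0% = like untreated) about 3 weeks after treatment. Plants at the one-leaf stage, 2-3 weeks old, were sprayed with WP/EC formulations plus 0.5% additive (600 L/ha water, up to 1280 g/ha). Plants were grown in sandy loam in a greenhouse.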

[4] = system: ECHCG; experiment: A. Herbicidal pre-emergence action on harmful plants (Tables A); format: in vivo, Echinochloa crus-galli; settings: visual grading after ca. 3 weeks vs untreated controls, 100% = plants have died off, 0% = as control plants
In short: (§2)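 Greenhouse pre-emergence test: compound applied to the soil surface at 1280 g/ha or below, and herbicidal effect rated visually at ca. 3 weeks on a 0–100% scale against untreated plants.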

[5] = system: STEME; experiment: as above; format: in vivo, Stellaria media; settings: visual grading after ca. 3 weeks vs untreated controls, 100% = plants have died off, 0% = as control plants
In short: as §2

[6] = system: ALOMY; experiment: as above; format: in vivo, Alopecurus myosuroides; settings: application rate 1280 g/ha; Table A9a
In short: as §2

[7] = system: LOLRI; experiment: as above; format: in vivo, Lolium rigidum; settings: visual grading after ca. 3 weeks vs untreated controls, 100% = plants have died off, 0% = as control plants
In short: as §2

[8] = system: DIGSA; experiment: B. Herbicidal post-emergence action on harmful plants (Tables B); format: in vivo, Digitaria sanguinalis; settings: application rate 1280 g/ha; Table B12a
Description: as §1

[9] = system: POAAN; experiment: A. Herbicidal pre-emergence action on harmful plants (Tables A); format: in vivo, Poa annua
In short: as §2

[10] = system: STEME; experiment: B. Herbicidal post-emergence action on harmful plants (Tables B); format: in vivo, Stellaria media; settings: application rate 1280 g/ha; Table B6
Description: as §1

[11] = system: MATIN; experiment: as above; format: in vivo, Matricaria inodora; settings: application rate 1280 g/ha; Table B4a
Description: as §1

[12] = system: ABUTH; experiment: as above; format: in vivo, Abutilon theophrasti; settings: application rate 1280 g/ha; Table B1a
Description: as §1

[13] = system: MATIN; experiment: A. Herbicidal pre-emergence action on harmful plants (Tables A); format: in vivo, Matricaria inodora; settings: visual grading after ca. 3 weeks vs untreated controls, 100% = plants have died off, 0% = as control plants
In short: as §2

[14] = system: DIGSA; experiment: as above; format: in vivo, Digitaria sanguinalis
In short: as §2

[15] = system: VERPE; experiment: B. Herbicidal post-emergence action on harmful plants (Tables B); format: in vivo, Veronica persica
Description: as §1

[16] = system: SETVI; experiment: A. Herbicidal pre-emergence action on harmful plants (Tables A); format: in vivo, Setaria viridis; settings: visual grading after ca. 3 weeks vs untreated controls, 100% = plants have died off, 0% = as control plants
In short: as §2

[17] = system: ALOMY; experiment: B. Herbicidal post-emergence action on harmful plants (Tables B); format: in vivo, Alopecurus myosuroides; settings: application rate 1280 g/ha; Table B9a
Description: as §1

[18] = application rate 1280 g/ha, visual grading after ca. 3 weeks vs untreated controls, 100% = plants have died off, 0% = as control plants
[19] = application rate 320 g/ha, Table A7b
[20] = application rate 1280 g/ha, Table A12a
[21] = application rate 1280 g/ha, Table B11a

COCc1nn(C)cc1C(=O)N1CCCC1Cc1ccccc1C (single isomer, unassigned) [Example I-084]
post-emergence activity against ECHCG [1]: 90% | pre-emergence activity against AMARE ([2]; application rate 320 g/ha, Table A8b): 90% | pre-emergence activity against AMARE [2, 18]: 90% | post-emergence activity against POAAN ([3]; application rate 320 g/ha, Table B7b): 100% | post-emergence activity against POAAN ([3]; application rate 1280 g/ha, Table B7a): 100% | pre-emergence activity against ECHCG ([4]; application rate 80 g/ha): 90% | pre-emergence activity against ECHCG ([4]; application rate 320 g/ha): 90% | pre-emergence activity against ECHCG ([4]; application rate 1280 g/ha): 90% | pre-emergence activity against STEME ([5]; application rate 320 g/ha): 90% | pre-emergence activity against STEME ([5]; application rate 1280 g/ha): 90% | pre-emergence activity against ALOMY [6]: 90% | pre-emergence activity against LOLRI ([7]; application rate 320 g/ha): 90% | pre-emergence activity against LOLRI ([7]; application rate 1280 g/ha): 100% | post-emergence activity against DIGSA [8]: 90% | pre-emergence activity against POAAN ([9]; application rate 80 g/ha, Table A7c): 100% | pre-emergence activity against POAAN [9, 19]: 100% | pre-emergence activity against POAAN [9, 18]: 100% | post-emergence activity against STEME [10]: 90% | post-emergence activity against MATIN [11]: 90% | post-emergence activity against ABUTH [12]: 90% | pre-emergence activity against MATIN ([13]; application rate 80 g/ha): 90% | pre-emergence activity against MATIN ([13]; application rate 320 g/ha): 90% | pre-emergence activity against MATIN ([13]; application rate 1280 g/ha): 90% | pre-emergence activity against DIGSA ([14]; application rate 80 g/ha, Table A12c): 90% | pre-emergence activity against DIGSA ([14]; application rate 320 g/ha, Table A12b): 90% | pre-emergence activity against DIGSA [14, 20]: 90% | post-emergence activity against VERPE ([15]; application rate 320 g/ha, Table B11b): 90% | post-emergence activity against VERPE [15, 21]: 90% | pre-emergence activity against SETVI ([16]; application rate 80 g/ha): 90% | pre-emergence activity against SETVI ([16]; application rate 320 g/ha): 90% | pre-emergence activity against SETVI ([16]; application rate 1280 g/ha): 100%

Cn1cc(C(=O)N2CCCC2Cc2cc(F)ccc2F)c(COc2ccccc2)n1 (racemic) [Example I-010]
post-emergence activity against ECHCG [1]: 90% | post-emergence activity against ALOMY [17]: 90% | pre-emergence activity against STEME ([5]; application rate 1280 g/ha): 90% | pre-emergence activity against ALOMY [6]: 100% | pre-emergence activity against POAAN [9, 19]: 90% | pre-emergence activity against POAAN [9, 18]: 100% | post-emergence activity against ABUTH [12]: 90% | pre-emergence activity against DIGSA [14, 20]: 90% | post-emergence activity against VERPE [15, 21]: 90%
